Where two headings read alike, the source gives them in different places.
How the values were obtained:
SERT = SERT (Homo sapiens (Human), UniProt P31645); assay: SERT inhibition assay (Neurotransmitter Transporter fluorescence uptake, stable 5HTT HEK293 cells); type: cell-based; conditions: n=6 ± SD
Procedure: SERT inhibition was measured using a Neruotransmitter Transportation Fluorescence assay. Briefly, stable 5HTT HEK293 cells were prepared in a 384 microwell plate (20,000 cells per 20 μL well). Compounds were prepared by in assay buffer (20 mM HEPES in HBSS, 0.1% BSA) at a top concentration of 1 μM. 10 doses of test compound (3-fold serial dilution) were added to the plated cells and incubated for 30 minutes at 37° C. 25 μL of dye solution (Molecular Devices Neurotransmitter Transporter Uptake Assay Kit) was added per well and incubated for 30 minutes at 37° C.

PDE4A1A = PDE4A1A (Homo sapiens (Human), UniProt P27815); assay: PDE4 inhibition assay (fluorescence polarization), PDE4A1A; type: biochemical; conditions: 10 μM
Procedure: (§1) 100 μM dilutions of the test compounds were prepared in assay buffer (10% DMSO concentration) and 5 μl of the dilution was added to a 50 μl reaction so that the final concentration of DMSO is 1% in all of reactions. The enzymatic reactions were conducted at room temperature for 60 minutes in a 50 μl mixture containing PDE assay buffer, 100 nM FAM-cAMP, a PDE enzyme (Table 2.3.1) and the test compound (Section 2.2). After the enzymatic reaction, 100 μl of a binding solution (1:100 dilution of the binding agent with the binding agent diluent) was added to each reaction and the reaction was performed at room temperature for 60 minutes. Fluorescence intensity was measured at an excitation of 485 nm and an emission of 528 nm using a Tecan Infinite M1000 microplate reader.
(§2) • 1) Dilute 20 μM FAM-Cyclic-3′, 5′-AMP stock 100-fold with PDE buffer to make a 200 nM solution. • 2) Add 25 μl of FAM-Cyclic-3′,5′-AMP (200 nM) to each well designated “Positive Control”, “Test Inhibitor”, and “Substrate Control”. • 3) Add 20 μl of PDE assay buffer to each well designated “Substrate Control” and 45 μl of PDE assay buffer to each well designated “Blank”. • 4) Add 5 μl of inhibitor solution to each well designated “Test Inhibitor”. For the wells labeled “Positive Control”, “Substrate Control” and “Blank”, add 5 μl of the same solution without inhibitor (inhibitor buffer). • 5) Thaw PDE on ice. Upon first thaw, briefly spin tube containing enzyme to recover the full contents of the tube. • 6) Dilute PDE4 in PDE buffer to 7.5 pg/μl (0.15 ng/reaction)*. Initiate reaction by adding 20 µl of PDE4 (7.5 pg/μl) to the wells designated “Positive Control” and “Test Inhibitor.” • 7) Incubate at room temperature for 1 hour.
(§3) • 1) Mix binding agent thoroughly and dilute binding agent 1:100 with binding agent diluent. • 2) Add 100 μl diluted binding agent to each microwell. Incubate at room temperature for 1 hour with slow shaking. • 3) Read the fluorescent polarization of the sample in a microtiter-plate reader equipped for the measurement of fluorescence polarization, capable of excitation at wavelengths ranging from 485±5 nm and detection of emitted light ranging from 528±10 nm. Blank value is subtracted from all other values. • 4) Data Analysis: PDE activity assays were performed in duplicate at each concentration. Fluorescence intensity is converted to fluorescence polarization using the Tecan Magellan6 software. The fluorescence polarization data were analyzed using the computer software, Graphpad Prism. The fluorescence polarization (FPt) in absence of the compound in each data set was defined as 100% activity. In the absence of PDE and the compound, the value of fluorescent polarization (FPb) in each data set was defined as 0% activity. The percent activity in the presence of the compound was calculated according to the following equation: % activity=(FP−FPb)/(FPt−FPb)×100%, where FP=the fluorescence polarization in the presence of the compound. The values of % activity versus a series of compound concentrations were then plotted using non-linear regression analysis of sigmoidal dose-response curve generated with the equation Y=B+(T−B)/1+10^(LogEC50−X)×Hill Slope), where Y=percent activity, B=minimum percent activity, T=maximum percent activity, X=logarithm of compound and Hill Slope=slope factor or Hill coefficient. The IC50 value was determined by the concentration causing a half-maximal percent activity.

PDE4B2 = PDE4B2 (Homo sapiens (Human), UniProt Q07343); assay: PDE4 inhibition assay (fluorescence polarization), PDE4B2; type: biochemical
Procedure: as §1, §2, §3

PDE4C1 = PDE4C1 (Homo sapiens (Human), UniProt Q08493); assay: PDE4 inhibition assay (fluorescence polarization), PDE4C1; type: biochemical; conditions: 10 μM
Procedure: as §1, §2, §3

PDE4D2 = PDE4D2 (Homo sapiens (Human), UniProt Q08499); assay: PDE4 inhibition assay (fluorescence polarization), PDE4D2; type: biochemical; conditions: 10 μM
Procedure: as §1, §2, §3

mouse behavior = assay: SmartCube system behavioral signature in mice; type: in vivo
Source text: To confirm that compound 018 and Compound 019 has antidepressant effects, the SmartCube® system (Psychogenics, Inc., Paramus, NJ) was used. This system uses features derived from mouse behavioral data to classify compounds for their ability to treat neuro-psychiatric symptoms by comparing the features to a proprietary reference database of behavioral feature sets that are linked to classes of marketed drugs known to treat neuro-psychiatric symptoms. Thus the system can be used as a model to identify the psychiatric effect of a compound by comparing the effects of the compounds against drugs with known validated effects. By comparing the responses of animals to known drugs, the test drug can be categorized according to its function; for example, hallucinogen, anxiogenic, analgesic, cognitive enhancer, psychostimulant, mood stabilizer, high dose anti-psychotic, anti-psychotic, sedative/hypnotic, anxiolytic, high dose antidepressant, antidepressant.
Once all features are extracted from the raw data through an automated pipeline, proprietary bioinformatics algorithms are used to decorrelate groups of features and find the combination of values that best separate different groups of interest. For each compound, at each dose, they system provides a probability that the drug is active and breaks down such putative activity into the different classes of interest.
Mice were tested in the SmartCube® system where they were exposed to a sequence of challenges during the 45-minute test period. The cubes were cleaned between each run.
For class and subclass analysis, a reference data set has been built from hundreds of drug doses in multiple drug classes plus a control group. Each reference drug was tested at multiple doses appropriate for that drug in mice. The best performing classifiers were chosen from our evaluation tests and two separate types of classifiers were built that make independent predictions at drug class and subclass levels. The Class consists of drugs that are currently in the market or have been clinically validated for that specific indication. The sub-class consists of both marketed drugs and other compounds that have been mechanistically validated and is a larger set than the Class.
Data was processed using proprietary computer vision and data mining algorithms and the results were compared to signatures of the reference compounds in our database. Multiple analyses of the data was performed to quantitatively produce independent predictions of drug class, and drug subclass. The behavioral signatures of the test drug were evaluated using these classifiers to predict potential therapeutic utility.

[1] = human, 1 µM
Procedure: (§4) A 2.5 uL aliquot of 100 μM test compound was incubated with 247.5 uL of cryopreserved hepatocytes suspended in serum-free incubation medium at 1 million viable cells/mL. The mixture was incubated at 37° C. and shaken at 500 rpm for the designated time points (0.5, 5, 10, 15, 30, 60, 90, or 120 min). At each time point, 25 uL aliquot of incubation mixture was transferred to 125 uL of cold acetonitrile containing internal standard, followed by centrifugation for 30 min at 3,220 g. 100 uL of supernatant was mixed with 100 uL of distilled water for analysis by LC-MS/MS. Peak area ratios were determined from extracted ion chromatograms and percent recovery was calculated.

[2] = dog, in vivo
Source text: (§5) HPLC Instrument: Shimsadzu (DGU-20A5R, Serial No: L20705621435 IX; LC-30AD Serial No: L20555611905 AE and L20555611816 AE; SIL-L30AC, Serial No: L20565605499 AE; Rack Changer II Serial No. L20585601125 SS; CTO20A: Serial No. L20205620413 CD; CBM-20A: Serial No. L20235636200 CD) • MS: AB API 5500 LC/MS/MS instrument (Serial No. EF221221812) • Column: Phenomenex Synergi 2.5 μm Polar-RP 100A. (50×3 mm) • Mobile Phase: (A) 5% Acetonitrile in Water (0.1% Formic acid); (B) 95% Acetonitrile in Water (0.1% Formic acid) • Samples: 50 μL of plasma sample+5 μL of blank solution+200 μL of acetonitrile for PPE (protein precipitation extraction).
(§6) The desired serial concentrations of working solutions were achieved by diluting stock solution of analyte with 50% acetonitrile in water solution. 5 μL of working solutions (5, 10, 20, 50, 100, 500, 1000, 5000, 10000 ng/mL) were added to 50 μL of the blank Beagle Dog plasma to achieve calibration standards of 0.5˜1000 ng/mL (0.5, 1, 2, 5, 10, 50, 100, 500, 1000 ng/mL) in a total volume of 55 μL. Five quality control samples at 1 ng/mL, 2 ng/mL, 5 ng/mL, 50 ng/mL and 800 ng/mL for plasma were prepared independently of those used for the calibration curves. These QC samples were prepared on the day of analysis in the same way as calibration standards.
(§7) 55 μL standards, 55 μL QC samples and 55 μL unknown samples 50 μL plasma with 5 μL blank solution) were added to 200 μL of acetonitrile containing IS mixture for precipitating protein respectively. Then the samples were vortexed for 30 s. After centrifugation at 4 degree Celsius, 3900 rpm for 15 min, the supernatant was diluted 3 times with water.

in vivo = conditions: beagle, dog
Source text: as §5, §6, §7

in vitro = conditions: human hepatocytes
Procedure: as §4

[3] = Hepatocyte metabolism (stability in cryopreserved hepatocytes); conditions: human hepatocytes
Procedure: as §4

PDE4C1, sequence (Q08493 whole entry): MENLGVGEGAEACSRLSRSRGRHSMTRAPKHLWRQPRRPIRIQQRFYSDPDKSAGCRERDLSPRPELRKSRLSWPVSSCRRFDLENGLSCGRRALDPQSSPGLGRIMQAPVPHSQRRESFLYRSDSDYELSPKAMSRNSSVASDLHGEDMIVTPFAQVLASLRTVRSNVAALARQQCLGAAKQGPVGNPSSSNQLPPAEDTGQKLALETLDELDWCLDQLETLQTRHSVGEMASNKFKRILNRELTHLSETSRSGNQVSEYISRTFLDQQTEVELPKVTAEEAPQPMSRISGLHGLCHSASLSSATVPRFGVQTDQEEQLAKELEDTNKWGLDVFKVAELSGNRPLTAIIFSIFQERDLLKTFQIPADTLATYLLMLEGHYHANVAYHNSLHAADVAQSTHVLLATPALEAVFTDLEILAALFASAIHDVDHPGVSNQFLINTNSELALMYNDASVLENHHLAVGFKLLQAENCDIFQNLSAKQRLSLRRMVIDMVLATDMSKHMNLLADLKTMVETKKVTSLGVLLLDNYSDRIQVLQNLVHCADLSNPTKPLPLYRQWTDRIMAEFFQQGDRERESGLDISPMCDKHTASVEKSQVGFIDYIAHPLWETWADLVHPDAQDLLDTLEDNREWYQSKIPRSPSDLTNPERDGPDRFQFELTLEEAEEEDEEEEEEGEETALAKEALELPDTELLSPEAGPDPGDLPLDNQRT
PDE4D2, sequence (Q08499 303-809): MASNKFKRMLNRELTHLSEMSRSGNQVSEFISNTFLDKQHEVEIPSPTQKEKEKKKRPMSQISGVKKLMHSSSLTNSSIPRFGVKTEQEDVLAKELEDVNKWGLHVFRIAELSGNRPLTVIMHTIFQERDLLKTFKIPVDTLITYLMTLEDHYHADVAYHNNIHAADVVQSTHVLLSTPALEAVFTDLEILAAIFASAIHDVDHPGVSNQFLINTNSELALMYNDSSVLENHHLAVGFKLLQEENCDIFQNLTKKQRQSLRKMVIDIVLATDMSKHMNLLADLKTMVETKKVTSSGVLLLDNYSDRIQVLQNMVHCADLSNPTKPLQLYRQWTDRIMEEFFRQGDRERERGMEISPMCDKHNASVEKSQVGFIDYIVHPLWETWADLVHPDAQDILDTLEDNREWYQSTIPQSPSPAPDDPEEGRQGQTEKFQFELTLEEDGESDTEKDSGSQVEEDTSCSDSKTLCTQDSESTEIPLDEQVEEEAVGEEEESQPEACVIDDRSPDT
PDE4A1A, sequence (P27815 other isoform, or with tags, fused parts or gaps): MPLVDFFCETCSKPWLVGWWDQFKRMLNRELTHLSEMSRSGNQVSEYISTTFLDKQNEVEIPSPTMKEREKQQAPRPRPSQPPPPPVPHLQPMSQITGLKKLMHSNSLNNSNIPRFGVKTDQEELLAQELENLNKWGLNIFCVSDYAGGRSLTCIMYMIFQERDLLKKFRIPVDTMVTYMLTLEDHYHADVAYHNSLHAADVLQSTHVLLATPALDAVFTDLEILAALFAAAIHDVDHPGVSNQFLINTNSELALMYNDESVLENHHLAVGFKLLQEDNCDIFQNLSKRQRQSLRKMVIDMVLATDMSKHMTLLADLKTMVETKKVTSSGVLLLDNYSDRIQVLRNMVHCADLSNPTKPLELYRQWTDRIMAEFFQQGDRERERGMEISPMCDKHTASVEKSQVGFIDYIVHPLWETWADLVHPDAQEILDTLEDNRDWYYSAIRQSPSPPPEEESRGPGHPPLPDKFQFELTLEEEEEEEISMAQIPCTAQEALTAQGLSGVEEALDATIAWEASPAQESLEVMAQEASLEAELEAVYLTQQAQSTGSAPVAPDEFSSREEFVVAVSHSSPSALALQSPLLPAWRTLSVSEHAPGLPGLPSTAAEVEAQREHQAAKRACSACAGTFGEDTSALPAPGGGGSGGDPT
PDE4B2, sequence (Q07343 other isoform, or with tags, fused parts or gaps): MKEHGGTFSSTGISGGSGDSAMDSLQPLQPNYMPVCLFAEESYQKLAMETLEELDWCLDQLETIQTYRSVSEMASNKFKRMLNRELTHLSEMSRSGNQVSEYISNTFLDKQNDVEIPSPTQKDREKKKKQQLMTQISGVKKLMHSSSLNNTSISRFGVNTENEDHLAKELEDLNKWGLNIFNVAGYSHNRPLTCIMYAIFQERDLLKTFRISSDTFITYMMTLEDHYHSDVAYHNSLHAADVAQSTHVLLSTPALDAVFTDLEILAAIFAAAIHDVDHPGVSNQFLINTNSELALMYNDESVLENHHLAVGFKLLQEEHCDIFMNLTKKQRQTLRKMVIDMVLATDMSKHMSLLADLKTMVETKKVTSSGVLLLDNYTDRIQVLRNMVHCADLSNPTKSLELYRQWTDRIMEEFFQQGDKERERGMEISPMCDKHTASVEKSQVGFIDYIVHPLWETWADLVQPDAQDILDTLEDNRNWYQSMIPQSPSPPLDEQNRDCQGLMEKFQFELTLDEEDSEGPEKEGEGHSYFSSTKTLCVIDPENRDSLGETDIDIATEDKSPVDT

## COc1ccc([C@@]23CC[C@H](O)C[C@@H]2N(C)CC3)cc1OC [Compound 019, (3aS,6S,7aS)-3a-(3,4-dimethoxyphenyl)-1-methyloctahydro-1H-indol-6-ol]
SERT
  IC50: 10.6 ± 10.1 nM
PDE4A1A
  PDE4A1A % INH @ 10 μM: 4%
PDE4A1A; read-out: PDE4A1A % INH @ 10 μM
  inhibition at 10 µM: ≤ 5%
PDE4B2
  PDE4B2 % INH @ 10 μM: 0%
PDE4B2; listed as Compound 19
  PDE4B2 % INH @ 10 μM: no more than 5%
PDE4C1
  PDE4C1 % INH @ 10 μM: 3%
PDE4C1; read-out: PDE4C1 % INH @ 10 μM
  inhibition at 10 µM: ≤ 5%
PDE4D2
  PDE4D2 %INH @ 10 μM: 3%
PDE4D2; read-out: PDE4D2 %INH @ 10 μM
  inhibition at 10 µM: ≤ 5%
Mouse behavior; mice, 3 mg/kg
  behavioral activity (in words): low behaviorally activity
Mouse behavior; mice, 100 mg/kg
  antidepressant signature, subclass analysis: a mix of SSRI and SNRI
Mouse behavior; mice, 10, 30 and 100 mg/kg
  signature in class and subclass: mixed antidepressant and psychostimulant-like signatures
[1]
  % QH: <10%
  CLHB: <2 mL/min/kg
[2]; beagle, iv, 2 mg/kg
  AUC_% Extrap_obs: 0.52%
  AUClast/D: 1560
  Cl_obs: 10.82 mL/min/kg
[2]; beagle, po, 10 mg/kg
  AUC_% Extrap_obs: 0.64%
  AUClast/D: 1473.2
  F: 94.6%
[2]; iv
  half-life compared to Compound 018: about three times greater
In vivo; iv, 2 mg/kg
  AUC(0-inf): 3140 ng·h/mL
  AUC(0-t): 3120 ng·h/mL
  C0: 1530 ng/mL
  MRT inf: 3.86 h
  half-life: 3.38 h
In vivo; po, 10 mg/kg
  AUC(0-inf): 14800 ng·h/mL
  AUC(0-t): 14700 ng·h/mL
  Cmax: 2550 ng/mL
  MRT inf: 4.85 h
  Tmax: 0.83 h
  half-life: 3.33 h
In vitro
  CLint scaled at 1 µM: < 2 mL/min/kg
  half-life at 1 µM: > 2 h
  hepatocyte CLint at 1 µM: < 1 µL/min/1e6 cells
[3]
  Extraction Ratio: <0.10
  t1/2: >2 h

— patent US20240398759A1, “INHIBITING SEROTONIN TRANSPORTER PROTEIN (5-HTT)” (priority 2022, published 2024)
